Experimental data as given in patent publication US12507721B2, “Ready-to-use parenteral nutrition formulation” (BAXTER INTERNATIONAL INC., priority 2021, dated 2025).

Columns and labels:
[1] = Studies of vitamin B12 in lipid emulsions irrespective of oil source, pH or stabilizing agent; format: physicochemical
Procedure: (storage for 3 months at 40° C.), even though hydroxocobalamin seems to remain relatively stable for about 6 months at 40° C.

[2] = Storage of Glucose Batch 1 at 40° C./25% RH for 6 months; format: physicochemical; conditions: sterilization cycles of Example 7
Procedure: In a next step, the stability of vitamin B12 was examined in Glucose Batch 1 which seemed to be the most promising based on the results shown in Table 7. Accordingly, several bags were stored at 40° C./25% RH for 6 months (T6M). Batch Glucose 1 was analyzed at T6M to revisit the presence of vitamin B12 in either its cyanocobalamin or hydroxocobalamin form. In order to test the validity of the test, vitamins B1, B3 and B6 were tested together with vitamin B12 both after sterilization and then throughout shelf life.

[3] = Vitamin stability in 35% glucose solution during sterilization and storage; format: physicochemical; conditions: for Unsterilized T0 concentration / T1M40° C. concentration / T3M40° C. concentration / Cycle 3 T0 concentration / T6M40° C. concentration / Cycle 4 T0 concentration: 35% glucose solution; for T1M40° C. concentration: 1 month at 40° C.; for T3M40° C. concentration: 3 months at 40° C.; for Cycle 3 T0 concentration: C0 = 25 minutes; for Cycle 3 T0 concentration / Cycle 4 T0 concentration: after sterilization; for T6M40° C. concentration: 6 months at 40° C., B12 value (*) is the sum of cyanocobalamin and hydroxocobalamin; for Cycle 4 T0 concentration: C0 = 19 minutes
Procedure: For testing the stability of vitamin B12 in formulation as they are typically used in parenteral nutrition, a 35% glucose solution, a 14.2% amino acid formulation such as found, for example, in Olimel N9E (Baxter), and a 20% lipid emulsion such as found in Clinoleic 20% (Baxter) were supplemented with different vitamin combinations which always included vitamin B12. KCl was added into the glucose solution to understand if it has an effect on the stability of vitamin B12. Vitamin B1 was introduced as thiamin HCl. Ascorbyl palmitate was added to the lipid emulsion formulation as a stabilizing agent due to its antioxidant properties. In addition, two separate micellar solutions (“Vit A” and “Vit B”, see Table 9) comprising certain vitamins to be assessed with regard to degradation (B3, B6, B8, B9, B12, C) but formulated with different excipients as micellization agents were tested for vitamin B12 stability. Vit A consisted of a solution of mixed micelles with ascorbyl palmitate as a potential stability enhancer. Vit B was formulated with a mix of polysorbates, PEG and sorbitol to form micelles. The micellar solutions were prepared by mixing, under high speed, a solution composed of glycocholic acid and lecithins dissolved in water. In case of Vit B, the glycocholic acid and lecithin were replaced by PEG and polysorbate. All formulations were provided in standard flexible containers and overpouched with an aluminum overpouch for subsequent sterilization. For an overview over formulations and conditions see Table 9.
All samples were submitted to two different sterilization technologies. Steam sterilization targeting a F0=8 min was used for large volumes (400/800 ml, Cycle 2) and for small volumes (25/50 ml, Cycle 1) as lined out in Table 9 above. The same samples were sterilized by water spray sterilization with a serial tower continuous sterilization equipment with two different exposure times (Cycles 3 (25 min.) and 4 (19 min.)).
The vitamin recovery was then compared between the different sterilization cycles and formulations to understand the impact of the formulation and the sterilization technology used on their respective short- and long-term stability. Therefore, after sterilization, the samples were stored at 40° C./25% RH for 6 months to evaluate the recovery of vitamin B12 at T1M, T3M and T6M. Besides, backup samples were stored at 5° C. Finally, some samples were also stored at 25° C./40% RH to provide for real time stability data.

[4] = Selenium stability in trace element solutions with selenate, selenomethionine or selenite; conditions: for selenium concentration during storage: TE formulation pH 2.2, heat sterilized, conditions not optimized for DO, FIGS. 9-11
Procedure: (§1) Timepoint 0 corresponds to the results of TE dosage right after sterilization. […] Timepoints 1, 3 and 6 correspond to the results of TE dosage after 1 month, 3 months and 6 months storage at 40° C./25% RH.
as §1, §1
For the three tested solutions containing different forms of selenium, the selenium is mixed with other TE (Zn, Cu, Mn, F, I, Mo, Cr, Fe), which were introduced as chloride salts. The solutions were acidified to pH 2.2 using malic acid and underwent terminal heat sterilization prior to storage.

[5] = Impact of DO on selenium stability; mix of 9 trace elements; format: physicochemical; conditions: sterilized samples stored at 40° C., FIG. 5
Procedure: The impact of oxygen seems of major importance in the stability of selenite containing trace element formulations. […] To confirm this hypothesis, a regression test was performed between Se assay results and log(dissolved oxygen results). Only sterilized samples stored at 40° C. were considered as the sterilization and storage at high temperature seem to both increase the Se degradation.
The presence of oxygen promotes selenite stability. To ensure that it is not deleterious to another TE the stability of a mix of the 9 TE of interest (i.e. Zn, Cu, Cr, Mo, Mn, Fe, I, F & Se) was evaluated at pH 2.2 with 200 mM of malic acid (to ensure iodide stability) and stored in a glass bottle (so containing about 3 ppm of dissolved oxygen). The solution was heat sterilized and stored 6 months at 40° C. or 5° C. (T6M 40° C. and T6M 5° C., respectively).

[6] = pediatric PN formulation stored at 25° C.; cited from earlier work
[7] = 25 ml, Cycle 1 steam sterilization
[8] = 800 ml, Cycle 2 steam sterilization
[9] = 800 ml, Cycle 3 water spray sterilization
[10] = 800 ml, Cycle 4 water spray sterilization

## C/C1=C2/[N-][C@H]([C@H](CC(N)=O)[C@@]2(C)CCC(=O)NC[C@@H](C)OP(=O)([O-])O[C@H]2[C@@H](O)[C@@H](n3cnc4cc(C)c(C)cc43)O[C@@H]2CO)[C@]2(C)N=C(/C(C)=C3N=C(/C=C4N=C1[C@@H](CCC(N)=O)C\4(C)C)[C@@H](CCC(N)=O)[C@]\3(C)CC(N)=O)[C@@H](CCC(N)=O)[C@]2(C)CC(N)=O.[Co+3].[OH-] [B12 HC, hydroxocobalamin]
[1]; at 40° C.
  time remaining relatively stable: about 6 months

## Cc1ncc(C[n+]2csc(CCO)c2C)c(N)n1 [Batch B1, thiamine]
[2]
  degradation during sterilization: no significant degradation

## NC(=O)c1cccnc1 [Batch B3, Nicotinamide]
[2]
  degradation during sterilization: no significant degradation
[3]; 25 ml (Table 10A)
  Unsterilized T0 concentration: 51.10 mg/L
[3]; [7]
  T1M40° C. concentration: 49.30 mg/L
  T3M40° C. concentration: 50.20 mg/L
[3]; 800 ml (Table 10B)
  Unsterilized T0 concentration: 51.10 mg/L
[3]; 800 ml (Table 11A)
  Unsterilized T0 concentration: 52.80 mg/L
[3]; 800 ml (Table 11B)
  Unsterilized T0 concentration: 52.80 mg/L
[3]; [8]
  T1M40° C. concentration: 50.60 mg/L
  T3M40° C. concentration: 51.20 mg/L
[3]; [9]
  Cycle 3 T0 concentration: 50.50 mg/L
  T3M40° C. concentration: 50.30 mg/L
  T6M40° C. concentration: 48.27 mg/L
[3]; [10]
  Cycle 4 T0 concentration: 50.40 mg/L
  T3M40° C. concentration: 51.00 mg/L
  T6M40° C. concentration: 49.35 mg/L

## Cc1ncc(CO)c(CO)c1O [Batch B6, pyridoxine]
[2]
  degradation during sterilization: no significant degradation
[3]; 25 ml (Table 10A)
  Unsterilized T0 concentration: 6.40 mg/L
[3]; [7]
  T1M40° C. concentration: 6.40 mg/L
  T3M40° C. concentration: 6.50 mg/L
[3]; 800 ml (Table 10B)
  Unsterilized T0 concentration: 6.40 mg/L
[3]; 800 ml (Table 11A)
  Unsterilized T0 concentration: 6.61 mg/L
[3]; 800 ml (Table 11B)
  Unsterilized T0 concentration: 6.61 mg/L
[3]; [8]
  T1M40° C. concentration: 5.93 mg/L
  T3M40° C. concentration: 6.00 mg/L
[3]; [9]
  Cycle 3 T0 concentration: 6.23 mg/L
  T3M40° C. concentration: 6.10 mg/L
  T6M40° C. concentration: 6.04 mg/L
[3]; [10]
  Cycle 4 T0 concentration: 6.27 mg/L
  T3M40° C. concentration: 5.90 mg/L
  T6M40° C. concentration: 6.03 mg/L

## O=[Se](=O)(O)O [Selenate, sodium selenate]
[4]
  selenium concentration during storage: remained stable

## O=[Se](O)O [selenite, sodium selenite]
[5]
  oxygen amount sufficient to ensure stability in the trace element formulation: around 0.5 ppm
[4]; TE solution pH 2.2 (malic acid), terminal heat sterilization, DO not strictly controlled, analysis stopped
  stability after three months: lack of stability

## C[Se]CC[C@H](N)C(=O)O [selenomethionine]
[4]
  selenium concentration during storage: remained stable

## O=C1O[C@H]([C@@H](O)CO)C(O)=C1O [vitamin C, ascorbic acid]
[6]
  time after which instability was presented: 48 h

## cyanocobalamin [B12 CC]
[3]; standard PN glucose solution, Cycles 1 and 2 (steam sterilization), FIG. 4
  detection of cyanocobalamin after 6 months: no cyanocobalamin can be detected
[1]; T3M40° C. (storage for 3 months at 40° C.)
  detection of cyanocobalamin: no more cyanocobalamin can be detected
